Test results published in ChEMBL document CHEMBL1136696, “Azalide 3,6-ketals: antibacterial activity and structure-activity relationships of aryl and hetero aryl substituted analogues” (Bioorg Med Chem Lett, 2003).
≈ marks a conversion by molar mass, not a printed value.

Key:
Assay type in all cases: functional
[1] = tested on: Staphylococcus aureus; test: In vitro antibacterial activity against Staphylococcus aureus 01A0758
[2] = tested on: Escherichia coli; test: In vitro antibacterial activity against Escherichia coli 51A0150
[3] = tested on: Pasteurella multocida; test: In vitro antibacterial activity against Pasteurella multocida 59A0067

Row | Compound | MIC [1] [µg/mL] | MIC [2] [µg/mL] | MIC [3] [µg/mL]
1 | CC[C@H]1OC(=O)[C@H](C)[C@H]2OC3(CCN(c4ccc(C(=O)OCc5ccccc5)c(C(F)(F)F)c4)CC3)O[C@](C)(C[C@@H](C)CN(C)[C@H](C)[C@@H](O)[C@]1(C)O)[C@H](O[C@@H]1O[C@H](C)CC(N(C)C)[C@H]1O)[C@H]2C (some centres undefined) | 0.78 (≈ 0.821 µM) | 3.13 (≈ 3.29 µM) | 0.39 (≈ 0.41 µM)
2 | CC[C@H]1OC(=O)[C@H](C)[C@H]2OC3(CCN(c4ccc([N+](=O)[O-])cn4)CC3)O[C@](C)(C[C@@H](C)CN[C@H](C)[C@@H](O)[C@]1(C)O)[C@H](O[C@@H]1O[C@H](C)CC(N(C)C)[C@H]1O)[C@H]2C (some centres undefined) | 1.56 (≈ 2 µM) | 3.13 (≈ 4.01 µM) | 0.39 (≈ 0.5 µM)
3 | CC[C@H]1OC(=O)[C@H](C)[C@H]2OC3(CCN(c4ccc(C(F)(F)F)cn4)CC3)O[C@](C)(C[C@@H](C)CN[C@H](C)[C@@H](O)[C@]1(C)O)[C@H](O[C@@H]1O[C@H](C)CC(N(C)C)[C@H]1O)[C@H]2C (some centres undefined) | 1.56 (≈ 1.94 µM) | 12.5 (≈ 15.6 µM) | 0.78 (≈ 0.971 µM)
4 | CC[C@H]1OC(=O)[C@H](C)[C@H]2OC3(CCN(c4ccc(N)cc4)CC3)O[C@](C)(C[C@@H](C)CN(C)[C@H](C)[C@@H](O)[C@]1(C)O)[C@H](O[C@@H]1O[C@H](C)CC(N(C)C)[C@H]1O)[C@H]2C (some centres undefined) | 6.35 (≈ 8.32 µM) | 12.5 (≈ 16.4 µM) | 1.56 (≈ 2.04 µM)
5 | CC[C@H]1OC(=O)[C@H](C)[C@H]2OC3(CCN(c4ccc(S(=O)(=O)c5ccc(F)cc5)cc4)CC3)O[C@](C)(C[C@@H](C)CN(C)[C@H](C)[C@@H](O)[C@]1(C)O)[C@H](O[C@@H]1O[C@H](C)CC(N(C)C)[C@H]1O)[C@H]2C (some centres undefined) | 3.13 (≈ 3.45 µM) | > 50 | 1.56 (≈ 1.72 µM)
6 | CCOC(=O)c1ccc(N2CCC3(CC2)O[C@H]2[C@H](C)[C@@H](O[C@@H]4O[C@H](C)CC(N(C)C)[C@H]4O)[C@@](C)(C[C@@H](C)CN[C@H](C)[C@@H](O)[C@](C)(O)[C@@H](CC)OC(=O)[C@@H]2C)O3)nc1 (some centres undefined) | 6.25 (≈ 7.74 µM) | 50 (≈ 62 µM) | 3.13 (≈ 3.88 µM)
7 | CC[C@H]1OC(=O)[C@H](C)[C@H]2OC3(CCN(c4ncccn4)CC3)O[C@](C)(C[C@@H](C)CN(C)[C@H](C)[C@@H](O)[C@]1(C)O)[C@H](O[C@@H]1O[C@H](C)CC(N(C)C)[C@H]1O)[C@H]2C (some centres undefined) | 1.56 (≈ 2.08 µM) | 1.56 (≈ 2.08 µM) | 0.1 (≈ 0.133 µM)
8 | CC[C@H]1OC(=O)[C@H](C)[C@H]2OC3(CCN(c4cc(C)c([N+](=O)[O-])cn4)CC3)O[C@](C)(C[C@@H](C)CN[C@H](C)[C@@H](O)[C@]1(C)O)[C@H](O[C@@H]1O[C@H](C)CC(N(C)C)[C@H]1O)[C@H]2C (some centres undefined) | 0.78 (≈ 0.982 µM) | 6.25 (≈ 7.87 µM) | 1.56 (≈ 1.96 µM)
9 | CC[C@H]1OC(=O)[C@H](C)[C@H]2OC3(CCN(c4ccc(C#N)cc4)CC3)O[C@](C)(C[C@@H](C)CN(C)[C@H](C)[C@@H](O)[C@]1(C)O)[C@H](O[C@@H]1O[C@H](C)CC(N(C)C)[C@H]1O)[C@H]2C (some centres undefined) | 3.13 (≈ 4.05 µM) | 25 (≈ 32.3 µM) | 0.39 (≈ 0.505 µM)
10 | CC[C@H]1OC(=O)[C@H](C)[C@H]2OC3(CCN(c4ccc(C(=O)OCc5ccccc5)cc4F)CC3)O[C@](C)(C[C@@H](C)CN[C@H](C)[C@@H](O)[C@]1(C)O)[C@H](O[C@@H]1O[C@H](C)CC(N(C)C)[C@H]1O)[C@H]2C (some centres undefined) | 0.39 (≈ 0.44 µM) | > 50 | 3.13 (≈ 3.53 µM)
11 | CC[C@H]1OC(=O)[C@H](C)[C@H]2OC3(CCN(c4nc5ccccc5o4)CC3)O[C@](C)(C[C@@H](C)CN(C)[C@H](C)[C@@H](O)[C@]1(C)O)[C@H](O[C@@H]1O[C@H](C)CC(N(C)C)[C@H]1O)[C@H]2C (some centres undefined) | 3.13 (≈ 3.97 µM) | 6.25 (≈ 7.92 µM) | 0.78 (≈ 0.989 µM)
12 | CC[C@H]1OC(=O)[C@H](C)[C@H]2OC3(CCN(c4ccccc4[N+](=O)[O-])CC3)O[C@](C)(C[C@@H](C)CN(C)[C@H](C)[C@@H](O)[C@]1(C)O)[C@H](O[C@@H]1O[C@H](C)CC(N(C)C)[C@H]1O)[C@H]2C (some centres undefined) | 1.56 (≈ 1.97 µM) | 3.13 (≈ 3.95 µM) | 0.39 (≈ 0.492 µM)
13 | CC[C@H]1OC(=O)[C@H](C)[C@H]2OC3(CCN(c4ncc(C(=O)OCc5ccccc5)c(C(F)(F)F)n4)CC3)O[C@](C)(C[C@@H](C)CN(C)[C@H](C)[C@@H](O)[C@]1(C)O)[C@H](O[C@@H]1O[C@H](C)CC(N(C)C)[C@H]1O)[C@H]2C (some centres undefined) | 1.17 (≈ 1.23 µM) | > 50 | > 50
14 | CC[C@H]1OC(=O)[C@H](C)[C@H]2OC3(CCN(c4nc(Cl)nc(-c5ccccc5)n4)CC3)O[C@](C)(C[C@@H](C)CN(C)[C@H](C)[C@@H](O)[C@]1(C)O)[C@H](O[C@@H]1O[C@H](C)CC(N(C)C)[C@H]1O)[C@H]2C (some centres undefined) | 1.56 (≈ 1.81 µM) | > 50 | > 50
15 | CC[C@H]1OC(=O)[C@H](C)[C@H]2OC3(CCN(c4ccc(NC(=O)c5ccccc5)cc4)CC3)O[C@](C)(C[C@@H](C)CN(C)[C@H](C)[C@@H](O)[C@]1(C)O)[C@H](O[C@@H]1O[C@H](C)CC(N(C)C)[C@H]1O)[C@H]2C (some centres undefined) | 12.5 (≈ 14.4 µM) | 50 (≈ 57.7 µM) | 1.56 (≈ 1.8 µM)
16 | CC[C@H]1OC(=O)[C@H](C)[C@H]2OC3(CCN(c4ccc(C(N)=O)cn4)CC3)O[C@](C)(C[C@@H](C)CN[C@H](C)[C@@H](O)[C@]1(C)O)[C@H](O[C@@H]1O[C@H](C)CC(N(C)C)[C@H]1O)[C@H]2C (some centres undefined) | 1.56 (≈ 2.01 µM) | 6.25 (≈ 8.03 µM) | 0.2 (≈ 0.257 µM)
17 | CC[C@H]1OC(=O)[C@H](C)[C@H]2OC3(CCN(c4nccc(C(F)(F)F)n4)CC3)O[C@](C)(C[C@@H](C)CN(C)[C@H](C)[C@@H](O)[C@]1(C)O)[C@H](O[C@@H]1O[C@H](C)CC(N(C)C)[C@H]1O)[C@H]2C (some centres undefined) | 6.25 (≈ 7.64 µM) | 12.5 (≈ 15.3 µM) | 1.56 (≈ 1.91 µM)
18 | CC[C@H]1OC(=O)[C@H](C)[C@H]2OC3(CCN(c4cc(CO)cc(Cl)n4)CC3)O[C@](C)(C[C@@H](C)CN[C@H](C)[C@@H](O)[C@]1(C)O)[C@H](O[C@@H]1O[C@H](C)CC(N(C)C)[C@H]1O)[C@H]2C (some centres undefined) | 1.56 (≈ 1.95 µM) | 0.78 (≈ 0.976 µM) | 0.2 (≈ 0.25 µM)
19 | CC[C@H]1OC(=O)[C@H](C)[C@H]2OC3(CCN(c4cncc(Cl)n4)CC3)O[C@](C)(C[C@@H](C)CN(C)[C@H](C)[C@@H](O)[C@]1(C)O)[C@H](O[C@@H]1O[C@H](C)CC(N(C)C)[C@H]1O)[C@H]2C (some centres undefined) | 1.56 (≈ 1.99 µM) | 6.25 (≈ 7.97 µM) | 0.39 (≈ 0.497 µM)
20 | CC[C@H]1OC(=O)[C@H](C)[C@H]2OC3(CCN(c4ccc(C(=O)O)c(C(F)(F)F)c4)CC3)O[C@](C)(C[C@@H](C)CN(C)[C@H](C)[C@@H](O)[C@]1(C)O)[C@H](O[C@@H]1O[C@H](C)CC(N(C)C)[C@H]1O)[C@H]2C (some centres undefined) | 25 (≈ 29.1 µM) | 12.5 (≈ 14.5 µM) | 3.13 (≈ 3.64 µM)
21 | CC[C@H]1OC(=O)[C@H](C)[C@H]2OC3(CCN(c4cc(OC)nc(OC)n4)CC3)O[C@](C)(C[C@@H](C)CN(C)[C@H](C)[C@@H](O)[C@]1(C)O)[C@H](O[C@@H]1O[C@H](C)CC(N(C)C)[C@H]1O)[C@H]2C (some centres undefined) | 1.56 (≈ 1.93 µM) | 6.25 (≈ 7.72 µM) | 0.39 (≈ 0.481 µM)
22 | CC[C@H]1OC(=O)[C@H](C)[C@H]2OC3(CCN(c4nccc(C(F)(F)F)n4)CC3)O[C@](C)(C[C@@H](C)CN[C@H](C)[C@@H](O)[C@]1(C)O)[C@H](O[C@@H]1O[C@H](C)CC(N(C)C)[C@H]1O)[C@H]2C (some centres undefined) | 1.56 (≈ 1.94 µM) | 3.13 (≈ 3.89 µM) | 0.78 (≈ 0.97 µM)
23 | CC[C@H]1OC(=O)[C@H](C)[C@H]2OC3(CCN(c4ccc(C)nn4)CC3)O[C@](C)(C[C@@H](C)CN(C)[C@H](C)[C@@H](O)[C@]1(C)O)[C@H](O[C@@H]1O[C@H](C)CC(N(C)C)[C@H]1O)[C@H]2C (some centres undefined) | 6.25 (≈ 8.18 µM) | 3.13 (≈ 4.1 µM) | 0.2 (≈ 0.262 µM)
